How the values were obtained:
[1] = system: wild type and Casp-1−/− mice injected with TAA; experiment: TAA induced liver fibrosis with co-injection of adenosine agonist; assay type: in vivo, mouse; conditions: wildtype mice
Procedure: FIGS. 16A-16B illustrate increased liver fibrosis in wild-type control but not caspase-1-deficient mice in response to adenosine agonist. FIG. 16A: Wild type and Casp-1−/− mice were injected intraperitoneally with TAA with co-injection of CGS21680 (2.5 mg kg^−1 body weight) or vehicle. The liver tissues from each group were collected […] after first injection, and tissue collagen visualized by Sirius red staining, and the representative images are shown. Scale bar corresponds to 500 μm. FIG. 16B: Total liver RNA was extracted and Timp1 mRNA levels quantified. Data are expressed as the mean±SD from three independent experiments. * p<0.05 determined by Student's t-test.
To further test the effect of increased adenosine signaling on fibrosis wild-type and caspase-1 deficient mice were injected with TAA with and without co-injection of the adenosine agonist CGS21680. After one week, liver tissues were stained for collagen with Sirus Red. CGS21680 increased TAA induced liver fibrosis and Timp1 expression in wildtype but not caspase-1 deficient mice (FIGS. 16A-16B).

[2] = system: HRE promoter luciferase construct in THP-1 cells; experiment: HRE-promoter luciferase reporter assay in THP-1 cells; assay type: cell-based, human; conditions: LPS/PMA primed 16 hours, treatment over 8 hours
Text: FIGS. 4A-4H illustrate the finding that adenosine mediates increase in pro-IL-1β via a HIF-1α-dependent pathway. FIG. 4A: Consensus NFκB and HRE binding sites in the IL-1β promoter. FIG. 4B: LPS primed PECs obtained from A2AR-cKO and controls were stimulated with or without NECA or CGS21680. FIG. 4C: LPS primed PECs obtained from HIF-1α-cKO and controls were stimulated with or without NECA at time points as indicated. Cells were harvested and RNA isolated after each treatment and gene expression of Il1b and Hif1α quantified by real-time PCR. FIG. 4D: THP-1 cells were transfected with HRE-promoter luciferase construct and β-galactosidase plasmid in the presence or absence of CREB dominant negative plasmid (CREBΔ), and then primed with LPS/PMA followed by NECA. […] Luciferase activities were measured and normalized to β-galactosidase activity and normalized with controls. […] Luciferase activities were measured and normalized to Rluc activity and the normalized value with controls as indicated. […] IL-1β was measured in cell supernatant by ELISA. Data are expressed as the mean±SD from three independent experiments. […] HIF-1α, pro-caspase-1, Caspase-1 and pro-IL-1β was measured in cell supernatant by western blot Immunoblots shown are representative results from at least three independent experiments. […]

SMILES: CCNC(=O)[C@H]1O[C@@H](n2cnc3c(N)nc(NCCc4ccc(CCC(=O)O)cc4)nc32)[C@H](O)[C@@H]1O [CGS21680]
- TAA induced liver fibrosis [1]: increased
- Timp1 expression [1]: increased

SMILES: CCNC(=O)[C@H]1O[C@@H](n2cnc3c(N)ncnc32)[C@H](O)[C@@H]1O [NECA, 5′-(N-ethylcarboxamido) adenosine]
- HRE reporter luciferase activity [2]: resulted in HRE reporter luciferase activity

Source: US10624917B2, “Compositions and methods useful for treating or preventing liver diseases or disorders, and promoting weight loss” (YALE UNIVERSITY, priority 2014, dated 2020)
